Marks after values point to notes of the source that are not given here.

Data set [1] relates to persistent asthmatic patients. The data set is described as follows: Clinical phase IIa single-dose cross-over study in persistent asthma (FEV1, safety, tolerability). Format: in vivo, human. An excerpt: Clinical phase IIa study: A randomised, single dose, double-blind, double-dummy, 6 way complete cross-over, placebo and active comparator controlled, assesses the efficacy, safety and tolerability of single doses of abediterol administered once daily by inhalation compared to placebo and active comparator in persistent asthmatic patients.
(§1) Methods: 62 patients (Adult men and women aged 18-70 years) with a clinical diagnosis of persistent asthma, as defined by the 2011 GINA guideline, for at least 6 months prior to screening and with a FEV1 61-85% of the predicted normal values (according to Quanjer et al. 1993) were randomised to treatment sequences comprising a single-dose administration of abediterol (at metered nominal doses of 0.313, 0.625, 1.25 and 2.5 micrograms in the Genuair® device), one administration of salbutamol (at a metered nominal dose of 400 micrograms (100 micrograms×4 puffs) in the Ventolin Evohaler® device) and placebo (administered in both Genuair® and Ventolin Evohaler®) administered all of them by means of […]. The washout period between each administration was at least 7 days.

Data set [2] relates to patients with stable moderate to severe chronic obstructive pulmonary disease (COPD). The data set is described as follows: Clinical phase IIa single-dose cross-over study in stable moderate to severe COPD (trough FEV1, safety, tolerability). Format: in vivo, human. The conditions noted are these: for Change from baseline in morning pre-dose (trough) FEV1 at Day 2: 23-24 h after administration. The text has this:
Clinical phase IIa study: A randomised, single dose, double-blind, double-dummy, 6 way complete cross-over, placebo and active comparator controlled, assesses the efficacy, safety and tolerability of single doses of abediterol administered once daily by inhalation compared to placebo and active comparator in patients with stable moderate to severe chronic obstructive pulmonary disease (COPD).
(§2) Methods: 63 patients (men and women aged ≧40 years) with a clinical diagnosis of stable moderate to severe COPD, as defined by the 2011 GOLD guideline, with no signs of an exacerbation within 6 weeks prior to the screening visit and with a FEV1 30-80% of the predicted normal values (according to Quanjer et al. 1993) were randomised to treatment sequences comprising a single-dose administration of abediterol (at a metered nominal dose of 0.625, 2.5, 5 and 10 micrograms in the Genuair® device), one administration of indacaterol (at a metered nominal dose of 150 micrograms once daily in the Onbrez Breezhaler® device) and placebo (administered in both Genuair® and Onbrez Breezhaler®). The washout period between each administration was at least 7 days. Lung function measurements included (by spirometry) trough FEV1. Trough FEV1 is defined as a main FEV1 value between 23 and 24 h after Investigational Medicinal Product (IMP) administration.

Data set [3] in a line: Measurement of the delivered dose (collection tube, Genuair inhaler, HPLC). The format is physicochemical. As for the experimental part: The measurement of the delivered dose is carried out based on Ph. Eur. Chapter 2.9.18 and USP <601> using “collection tube” apparatus (CT). For this, the Genuair® inhaler is fitted to the Collection Tube via an adapter, the dosage key of the Genuair® inhaler is pressed and released and then 2 L or 4 L of air are sucked through the inhaler and the Collection Tube (the inspiratory flow rate through the inhaler was approx. 65 L/min at a pressure drop of 4 KPa). Subsequently, the inhalation powder delivered to the Collection Tube is extracted with solvent and analyzed using High Performance Liquid chromatography equipment (HPLC).

Data set [4] is described as follows: Measurement of the fine particle dose (FPD<5 μm, Anderson Cascade Impactor, Genuair inhaler). Format: physicochemical. As for the experimental part: The test on the aerodynamic assessment of the fine particles (FPD<5 μm) of the inhalation powder composition is carried out in combination with the Genuair® inhaler. The Fine Particle Fraction of abediterol free base was calculated on basis of the principles of the aerodynamic assessment of fine particles according to the Current European pharmacopoeia (Ph. Eur. Chapter 2.9.18) and USP <601> by the aid of aerodynamic impactor analyses using a modified Anderson Cascade Impactor (ACI), 60 L/min-configuration including pre-separator, stage −1, −0, and stage 1-7 (filter stage). The content of the active ingredient on each stage of the impactor is determined my means of HPLC.
The fine particle dose (FPD<5 μm) is calculated based on Ph. Eur. Chapter 2.9.18 and USP <601> by point to point interpolation per dosage. Linear point to point interpolation is done between the stages with a corresponding effective cut-off diameter which enclose the 5 μm mark.
To obtain the Fine Particle Dose, the cumulative percent value (y-value) at which the line of data plot crosses 5 μm mark is determined. […]
FPD [μg]=yFPD·F/100% • FPD=Fine particle dose<5 μm of the active ingredient per dosage [μg]. • yFPD=y-value of cumulative percentage of mass at a particle size of 5 μm evaluated by linear point to point interpolation [%]. • F=sum of mass on stage −1-stage 7 (filter) per dosage [μg].

In data set [5] the test system is asthmatic and COPD patients. The data set is described as follows: Overall conclusion of the phase IIa studies in asthmatic and COPD patients. The format is in vivo, human.
Source text: as §1, §2

The mark [6] stands for this setting: nominal dose of 1.25 micrograms abediterol free base.
Setting [7] is: nominal dose of 2.5 micrograms abediterol free base.

For `O=c1ccc2c([C@@H](O)CNCCCCCCOCC(F)(F)c3ccccc3)ccc(O)c2[nH]1` [Abediterol, 5-(2-{[6-(2,2-difluoro-2-phenylethoxy)hexyl]amino}-1(R)-hydroxyethyl)-8-hydroxyquinolin-2(1H)-one], the “Tolerability (ECG, laboratory parameters, adverse events)” value was “well tolerated” in data set [1] (asthma patients, doses 0.313-2.5 micrograms, no dose-dependent effect) and “well tolerated” in data set [2] (COPD patients, doses 0.625-10 micrograms, no dose-dependent effect). Besides, the “Bronchodilatory effect compared with salbutamol” value in data set [1] (doses of 1.25 and 2.5 micrograms vs salbutamol 400 micrograms) is listed as “increased bronchodilatory effect”. The “Time to peak FEV1 at day 1” value in data set [1] (post-dose, all abediterol doses (0.313-2.5 micrograms)) is recorded as at most 4 h. Also, the “Change from baseline in peak FEV1 on Day 1” value in data set [1] (single inhaled dose 0.313 μg, Genuair, n = 60) is listed as 477* ml; in data set [1] (single inhaled dose 0.625 μg, Genuair, n = 60), 524* ml; in data set [1] (single inhaled dose 1.25 μg, Genuair, n = 60), 573** ml; in data set [1] (single inhaled dose 2.5 μg, Genuair, n = 61), 608*** ml. For the same molecule, the “Trough FEV1 compared with indacaterol 150 micrograms” value in data set [2] (doses of 2.5, 5 and 10 micrograms, statistically significant) is given as “greater trough FEV1”. Further, the “Minimum therapeutic effective dose producing higher bronchodilatory effects when compared with indacaterol 150 micrograms” value in data set [2] (metered nominal dose, Genuair) is 2.5 micrograms. Further, the “Change from baseline in morning pre-dose (trough) FEV1 at Day 2” value in data set [2] (single inhaled dose 0.625 μg, Genuair, n = 67) is recorded as 66* ml; in data set [2] (single inhaled dose 2.5 μg, Genuair, n = 66), 168** ml; in data set [2] (single inhaled dose 5 μg, Genuair), 198** ml; in data set [2] (single inhaled dose 10 μg, Genuair) it was 223*** ml. Moreover, the “Delivered dose per dose” value in data set [3] (setting [6]) was “about 1.1 micrograms”; in data set [3] (setting [7]), “about 2.3 micrograms”. Further, the “Fine particle dose (FPD<5 μm) per dose” value in data set [4] (setting [6]) is listed as “about 0.45 micrograms”; in data set [4] (setting [7]) it was “about 1.0 micrograms”. Besides, the “Duration of bronchodilation effect” value in data set [5] (all dose levels tested) is given as “more than 24 h”. The “Changes on safety outcomes (HR, QTcF, glucose and potassium)” value in data set [5] (all doses tested) was “no overall clinically relevant changes”. Besides, the “Minimum dose having similar therapeutic effect to salbutamol and indacaterol” value in data set [5] (metered nominal dose, Genuair) worked out at 0.625 micrograms.

`CCc1cc2c(cc1CC)CC(NC[C@H](O)c1ccc(O)c3[nH]c(=O)ccc13)C2` [Indacaterol, reference compound]: in data set [2] (150 μg, Onbrez Breezhaler, n = 68), the “Change from baseline in morning pre-dose (trough) FEV1 at Day 2” value was 76* ml.

With `CC(C)(C)NCC(O)c1ccc(O)c(CO)c1` (centres unmarked) [Salbutamol, reference compound], in data set [1] (400 μg (100 micrograms×4 puffs), Ventolin Evohaler, n = 58), the “Change from baseline in peak FEV1 on Day 1” value is 555** ml.

Source of the values: US20160303108A1, “NOVEL DOSAGE FORM AND FORMULATION OF ABEDITEROL” (Almirall, S.A., priority 2012, published 2016).
